Experimental data taken from publication PMC5218480 (PLoS ONE, 2017).

Tested on: MV-4-11 cells
Assay: Gene expression microarray analysis (Affymetrix PrimeView) and GSEA
Format: cell-based, human
Design: RFU PODN (11730768_x_at) / Fold change /veh PODN (11730768_x_at) / RFU LINC00158 (11744669_a_at) / Fold change /veh LINC00158 (11744669_a_at) / RFU DUSP10 (11751237_a_at) / Fold change /veh DUSP10 (11751237_a_at) / RFU ID3 (11757404_x_at) / Fold change /veh ID3 (11757404_x_at) / RFU PLEKHG5 (11737974_s_at) / Fold change /veh PLEKHG5 (11737974_s_at) / RFU LRRC4B (11730491_at) / Fold change /veh LRRC4B (11730491_at) / RFU GIMAP4 (11747438_a_at) / Fold change /veh GIMAP4 (11747438_a_at) / RFU KRT8 (11758183_x_at) / Fold change /veh KRT8 (11758183_x_at) / RFU CNN1 (11734310_a_at) / Fold change /veh CNN1 (11734310_a_at) / RFU VPS37D (11726825_at) / Fold change /veh VPS37D (11726825_at) / RFU C10orf10 (11716522_x_at) / Fold change /veh C10orf10 (11716522_x_at) / RFU KIR2DL2 /// KIR2DL4 /// KIR2DL5A /// KIR2DL5B /// KIR2DS1 /// KIR2DS2 /// KIR2DS3 /// KIR2DS4 /// KIR3DL3 /// KIR3DL3 /// KIR3DS1 (11738374_at) / Fold change /veh KIR2DL2 /// KIR2DL4 /// KIR2DL5A /// KIR2DL5B /// KIR2DS1 /// KIR2DS2 /// KIR2DS3 /// KIR2DS4 /// KIR3DL3 /// KIR3DL3 /// KIR3DS1 (11738374_at) / RFU C1QL1 (11718748_at) / Fold change /veh C1QL1 (11718748_at) / RFU TMPRSS4 (11747572_a_at) / Fold change /veh TMPRSS4 (11747572_a_at) / RFU HAMP (11756126_x_at) / Fold change /veh HAMP (11756126_x_at) / RFU RNFT2 (11725882_a_at) / Fold change /veh RNFT2 (11725882_a_at) / RFU NR4A2 (11747474_a_at) / Fold change /veh NR4A2 (11747474_a_at) / RFU ABCC12 (11746883_a_at) / Fold change /veh ABCC12 (11746883_a_at) / RFU TMEM136 (11760407_x_at) / Fold change /veh TMEM136 (11760407_x_at) / RFU CLDN22 /// WWC2 (11732394_at) / Fold change /veh CLDN22 /// WWC2 (11732394_at) / RFU HLA-DPB1 (11760878_x_at) / Fold change /veh HLA-DPB1 (11760878_x_at) / RFU SPINT1 (11716480_a_at) / Fold change /veh SPINT1 (11716480_a_at) / RFU GAP43 (11754022_s_at) / Fold change /veh GAP43 (11754022_s_at) / RFU A4GNT (11735810_at) / Fold change /veh A4GNT (11735810_at) / RFU PRB3 (11715151_x_at) / Fold change /veh PRB3 (11715151_x_at) / RFU TUBB4B (11761932_at) / Fold change /veh TUBB4B (11761932_at) / RFU CAPN14 (11732068_a_at) / Fold change /veh CAPN14 (11732068_a_at) / RFU TMCC2 (11721928_a_at) / Fold change /veh TMCC2 (11721928_a_at) / RFU IRGQ (11745062_a_at) / Fold change /veh IRGQ (11745062_a_at) / RFU FAM174B (11720279_a_at) / Fold change /veh FAM174B (11720279_a_at) / RFU TMPRSS4 (11748680_a_at) / Fold change /veh TMPRSS4 (11748680_a_at) / RFU FAM212B (11763350_a_at) / Fold change /veh FAM212B (11763350_a_at) / RFU PLEKHG5 (11743358_a_at) / Fold change /veh PLEKHG5 (11743358_a_at) / RFU ZSCAN30 (11745921_a_at) / Fold change /veh ZSCAN30 (11745921_a_at) / RFU CMKLR1 (11741424_a_at) / Fold change /veh CMKLR1 (11741424_a_at) / RFU LOC101060620 /// MAPK8IP1 (11723275_at) / Fold change /veh LOC101060620 /// MAPK8IP1 (11723275_at) / RFU SPTSSB (11747773_x_at) / Fold change /veh SPTSSB (11747773_x_at) / RFU PRSS12 (11739890_at) / Fold change /veh PRSS12 (11739890_at) / RFU BIN1 (11741810_x_at) / Fold change /veh BIN1 (11741810_x_at) / RFU WNT11 (11732464_a_at) / Fold change /veh WNT11 (11732464_a_at) / RFU C10orf10 (11716521_a_at) / Fold change /veh C10orf10 (11716521_a_at) / RFU C5orf56 (11738089_at) / Fold change /veh C5orf56 (11738089_at) / RFU CYB561 (11721691_x_at) / Fold change /veh CYB561 (11721691_x_at) / RFU ANKRD19P (11752326_a_at) / Fold change /veh ANKRD19P (11752326_a_at) / RFU OR2T12 /// OR2T33 /// OR2T8 (11738714_s_at) / Fold change /veh OR2T12 /// OR2T33 /// OR2T8 (11738714_s_at) / RFU VCAN (11748164_a_at) / Fold change /veh VCAN (11748164_a_at) / RFU JSRP1 (11732532_at) / Fold change /veh JSRP1 (11732532_at) / RFU KRTAP10-11 (11738290_x_at) / Fold change /veh KRTAP10-11 (11738290_x_at) / RFU MYO3A (11730013_a_at) / Fold change /veh MYO3A (11730013_a_at) / RFU EBF3 (11725865_a_at) / Fold change /veh EBF3 (11725865_a_at) / RFU CAMK2N1 (11719241_x_at) / Fold change /veh CAMK2N1 (11719241_x_at) / RFU C5orf56 (11738088_a_at) / Fold change /veh C5orf56 (11738088_a_at) / RFU OLFML3 (11715873_a_at) / Fold change /veh OLFML3 (11715873_a_at) / RFU LOC100653217 /// NTM (11731650_a_at) / Fold change /veh LOC100653217 /// NTM (11731650_a_at) / RFU MAPK11 (11762145_a_at) / Fold change /veh MAPK11 (11762145_a_at) / RFU FIZ1 (11724087_x_at) / Fold change /veh FIZ1 (11724087_x_at) / RFU OASL (11726364_x_at) / Fold change /veh OASL (11726364_x_at) / RFU SOX15 (11748057_x_at) / Fold change /veh SOX15 (11748057_x_at) / RFU CD79A (11719716_a_at) / Fold change /veh CD79A (11719716_a_at) / RFU HIST1H1D (11736915_at) / Fold change /veh HIST1H1D (11736915_at) / RFU CASKIN2 (11723855_a_at) / Fold change /veh CASKIN2 (11723855_a_at) / RFU LOC730098 (11760151_x_at) / Fold change /veh LOC730098 (11760151_x_at) / RFU OR4N2 (11742367_at) / Fold change /veh OR4N2 (11742367_at) / RFU PRRT2 (11749266_a_at) / Fold change /veh PRRT2 (11749266_a_at) / RFU SNX32 (11753110_a_at) / Fold change /veh SNX32 (11753110_a_at) / RFU CDHR5 (11726645_a_at) / Fold change /veh CDHR5 (11726645_a_at) / RFU RCAN1 (11760418_a_at) / Fold change /veh RCAN1 (11760418_a_at) / RFU FAM167A (11723789_a_at) / Fold change /veh FAM167A (11723789_a_at) / RFU FAM26E (11764081_at) / Fold change /veh FAM26E (11764081_at) / RFU ISYNA1 (11749810_s_at) / Fold change /veh ISYNA1 (11749810_s_at) / RFU ACY1 (11761880_at) / Fold change /veh ACY1 (11761880_at) / RFU 11764098_at / Fold change /veh 11764098_at / RFU SAMD14 (11745864_x_at) / Fold change /veh SAMD14 (11745864_x_at) / RFU NPB (11741838_a_at) / Fold change /veh NPB (11741838_a_at) / RFU TMPRSS6 (11731388_a_at) / Fold change /veh TMPRSS6 (11731388_a_at) / RFU KRTAP10-2 (11738614_at) / Fold change /veh KRTAP10-2 (11738614_at) / RFU ARHGAP8 /// PRR5-ARHGAP8 (11727945_x_at) / Fold change /veh ARHGAP8 /// PRR5-ARHGAP8 (11727945_x_at) / RFU KRTAP5-7 /// NADSYN1 (11734609_at) / Fold change /veh KRTAP5-7 /// NADSYN1 (11734609_at) / RFU RASL12 (11751679_a_at) / Fold change /veh RASL12 (11751679_a_at) / RFU CDKN2B (11736163_a_at) / Fold change /veh CDKN2B (11736163_a_at) / RFU PRF1 (11729649_at) / Fold change /veh PRF1 (11729649_at) / RFU, ZNF638 /// ZNF638-IT1 / Fold change vs veh, ZNF638 /// ZNF638-IT1 / RFU, PANK3 / Fold change vs veh, PANK3 / RFU, SH3YL1 / Fold change vs veh, SH3YL1 / RFU, ZEB2 / Fold change vs veh, ZEB2 / RFU, NRIP1 / Fold change vs veh, NRIP1 / RFU, PTTG1IP / Fold change vs veh, PTTG1IP / RFU, CAPN2 / Fold change vs veh, CAPN2 / RFU, MED14 / Fold change vs veh, MED14 / RFU, SNORA58 / Fold change vs veh, SNORA58 / RFU, C1orf63 / Fold change vs veh, C1orf63 / RFU, LRRFIP1 / Fold change vs veh, LRRFIP1 / RFU, NDUFAF7 / Fold change vs veh, NDUFAF7 / RFU, SLC12A2 / Fold change vs veh, SLC12A2 / RFU, IBTK / Fold change vs veh, IBTK / RFU, ESF1 / Fold change vs veh, ESF1 / Fold change vs veh, TMEM50B / RFU, TAOK1 / Fold change vs veh, TAOK1 / RFU, ACBD3 / Fold change vs veh, ACBD3 / RFU, TMA16 / Fold change vs veh, TMA16 / RFU, RWDD3 / Fold change vs veh, RWDD3 / RFU, BCAT1 / Fold change vs veh, BCAT1 / RFU, EDEM3 / Fold change vs veh, EDEM3 / RFU, TMEM33 / Fold change vs veh, TMEM33 / RFU, WDR75 / Fold change vs veh, WDR75 / RFU, AHCTF1 / Fold change vs veh, AHCTF1 / RFU, TFRC / Fold change vs veh, TFRC / RFU, ZDHHC17 / Fold change vs veh, ZDHHC17 / RFU, NOM1 / Fold change vs veh, NOM1 / RFU, ARL8B / Fold change vs veh, ARL8B / RFU, ZBTB11 / Fold change vs veh, ZBTB11 / RFU, TAMM41 / Fold change vs veh, TAMM41 / RFU, KIAA1704 /// LOC100996395 / Fold change vs veh, KIAA1704 /// LOC100996395 / RFU, ING1 / Fold change vs veh, ING1 / RFU, TRMT61B / Fold change vs veh, TRMT61B / RFU, FUBP3 / Fold change vs veh, FUBP3 / RFU, TP53 / Fold change vs veh, TP53 / RFU, TNKS2 / Fold change vs veh, TNKS2 / RFU, ZFP14 / Fold change vs veh, ZFP14 / RFU, ACTR2 / Fold change vs veh, ACTR2 / RFU, PPP3R1 / Fold change vs veh, PPP3R1 / RFU, PIK3R1 / Fold change vs veh, PIK3R1 / RFU, HNRNPA1 / Fold change vs veh, HNRNPA1 / RFU, RNF170 / Fold change vs veh, RNF170 / RFU, ZNF28 / Fold change vs veh, ZNF28 / RFU, RNGTT / Fold change vs veh, RNGTT / RFU, OGT / Fold change vs veh, OGT / RFU, BRD1 / Fold change vs veh, BRD1 / RFU, MARS / Fold change vs veh, MARS / RFU, ZNF655 / Fold change vs veh, ZNF655 / RFU, FAHD1 / Fold change vs veh, FAHD1 / RFU, BDP1 / Fold change vs veh, BDP1 / RFU, LRRCC1 / Fold change vs veh, LRRCC1 / RFU, ARID1A / Fold change vs veh, ARID1A / RFU, ZNF146 / Fold change vs veh, ZNF146 / RFU, ZNF330 / Fold change vs veh, ZNF330 / RFU, GPN3 / Fold change vs veh, GPN3 / RFU, C9orf123 / Fold change vs veh, C9orf123 / RFU, N4BP2L2 / Fold change vs veh, N4BP2L2 / RFU, ARFIP1 / Fold change vs veh, ARFIP1 / RFU, FAM179B / Fold change vs veh, FAM179B / RFU, BCL10 / Fold change vs veh, BCL10 / RFU, UHRF1BP1L / Fold change vs veh, UHRF1BP1L / RFU, BET1 / Fold change vs veh, BET1 / RFU, CNOT2 / Fold change vs veh, CNOT2 / RFU, ZNF268 / Fold change vs veh, ZNF268 / Fold change vs veh, ZNF507 / RFU, DGCR2 / Fold change vs veh, DGCR2 / RFU, WDSUB1 / Fold change vs veh, WDSUB1 / Fold change vs veh, HSP90B1 /// MIR3652 / RFU, ADSS / Fold change vs veh, ADSS / RFU, GK / Fold change vs veh, GK / RFU, ZNF148 / Fold change vs veh, ZNF148 / RFU, TAF9 / Fold change vs veh, TAF9 / RFU, SLC1A5 / Fold change vs veh, SLC1A5 / RFU, SLMO2 / Fold change vs veh, SLMO2 / RFU, ABCC4 / Fold change vs veh, ABCC4 / RFU, LOC101060439 /// RAP1B / Fold change vs veh, LOC101060439 /// RAP1B / RFU, RFX7 / Fold change vs veh, RFX7 / RFU, GTPBP10 / Fold change vs veh, GTPBP10 / RFU, CNEP1R1 / Fold change vs veh, CNEP1R1 / RFU, BIVM-ERCC5 /// ERCC5 / Fold change vs veh, BIVM-ERCC5 /// ERCC5 / RFU, ILF3 / Fold change vs veh, ILF3 / RFU 11762660_at / Fold change /veh 11762660_at / RFU VCAN (11757783_s_at) / Fold change /veh VCAN (11757783_s_at) / RFU DDX43 (11728927_at) / Fold change /veh DDX43 (11728927_at) / RFU KRT8 (11758188_x_at) / Fold change /veh KRT8 (11758188_x_at) / RFU NKD1 (11759106_at) / Fold change /veh NKD1 (11759106_at) / RFU SRD5A1 (11742802_a_at) / Fold change /veh SRD5A1 (11742802_a_at) / RFU TPSAB1 /// TPSB2 (11721975_s_at) / Fold change /veh TPSAB1 /// TPSB2 (11721975_s_at) / RFU GSTM3 (11746129_a_at) / Fold change /veh GSTM3 (11746129_a_at) / RFU IL23R (11737362_x_at) / Fold change /veh IL23R (11737362_x_at) / RFU TMEM51 (11727254_a_at) / Fold change /veh TMEM51 (11727254_a_at) / RFU PIWIL2 (11732686_x_at) / Fold change /veh PIWIL2 (11732686_x_at) / RFU ORM1 (11744905_x_at) / Fold change /veh ORM1 (11744905_x_at) / RFU CCDC152 (11743942_at) / Fold change /veh CCDC152 (11743942_at) / RFU ECM1 (11717891_a_at) / Fold change /veh ECM1 (11717891_a_at) / RFU IL23R (11748794_a_at) / Fold change /veh IL23R (11748794_a_at) / RFU TNFAIP8L3 (11732012_x_at) / Fold change /veh TNFAIP8L3 (11732012_x_at) / RFU MBOAT4 (11741988_at) / Fold change /veh MBOAT4 (11741988_at) / RFU 11764193_at / Fold change /veh 11764193_at / RFU TMEM53 (11763286_at) / Fold change /veh TMEM53 (11763286_at) / RFU MAGEB2 (11727129_at) / Fold change /veh MAGEB2 (11727129_at) / RFU TMEM200A (11744735_a_at) / Fold change /veh TMEM200A (11744735_a_at) / RFU CCDC152 (11751479_a_at) / Fold change /veh CCDC152 (11751479_a_at) / RFU FAM211A (11726209_a_at) / Fold change /veh FAM211A (11726209_a_at) / RFU RGS16 (11746705_a_at) / Fold change /veh RGS16 (11746705_a_at) / RFU VCAN (11755009_s_at) / Fold change /veh VCAN (11755009_s_at) / RFU RHOB (11743442_s_at) / Fold change /veh RHOB (11743442_s_at) / RFU RGS16 (11720943_a_at) / Fold change /veh RGS16 (11720943_a_at) / RFU RGS16 (11720944_at) / Fold change /veh RGS16 (11720944_at) / RFU, VPS4B / Fold change vs veh, VPS4B / RFU, CREB1 / Fold change vs veh, CREB1 / RFU, DNAJC13 / Fold change vs veh, DNAJC13 / RFU, GNAQ / Fold change vs veh, GNAQ / RFU, CDK5R1 / Fold change vs veh, CDK5R1 / RFU, ZRANB3 / Fold change vs veh, ZRANB3 / RFU, CUL4A / Fold change vs veh, CUL4A / RFU, CCNY / Fold change vs veh, CCNY / RFU, UFL1 / Fold change vs veh, UFL1 / RFU, COG3 / Fold change vs veh, COG3 / RFU, DIAPH2 / Fold change vs veh, DIAPH2 / RFU, SKA2 / Fold change vs veh, SKA2 / RFU, AFF3 / Fold change vs veh, AFF3 / RFU, LMF1 / Fold change vs veh, LMF1 / RFU, IPO11 / Fold change vs veh, IPO11 / RFU, DFFB / Fold change vs veh, DFFB / RFU, FOXP1 / Fold change vs veh, FOXP1 / RFU, CARD8 / Fold change vs veh, CARD8 / RFU, STRN3 / Fold change vs veh, STRN3 / RFU, ADK / Fold change vs veh, ADK / RFU, RASSF2 / Fold change vs veh, RASSF2 / RFU, WIPF1 / Fold change vs veh, WIPF1 / RFU, LARP1B / Fold change vs veh, LARP1B / RFU, RASA1 / Fold change vs veh, RASA1 / RFU, RB1 / Fold change vs veh, RB1 / RFU, PPFIA1 / Fold change vs veh, PPFIA1 / RFU, MAT2A / Fold change vs veh, MAT2A / RFU, CCT5 / Fold change vs veh, CCT5 / RFU, WDR92 / Fold change vs veh, WDR92 / RFU, CUX1 / Fold change vs veh, CUX1 / RFU, TTC7A / Fold change vs veh, TTC7A / RFU, TMEM135 / Fold change vs veh, TMEM135 / RFU, DEPTOR / Fold change vs veh, DEPTOR / RFU, CPM / Fold change vs veh, CPM / RFU, DNAJB6 / Fold change vs veh, DNAJB6 / RFU, CACNA2D3 / Fold change vs veh, CACNA2D3 / RFU, DTX4 / Fold change vs veh, DTX4 / RFU, TFCP2 / Fold change vs veh, TFCP2 / RFU, GMCL1 /// GMCL1P1 / Fold change vs veh, GMCL1 /// GMCL1P1 / RFU, AEBP2 / Fold change vs veh, AEBP2 / RFU, SNHG1 /// SNORD22 /// SNORD25 /// SNORD26 /// SNORD27 /// SNORD28 /// SNORD29 /// SNORD31 / Fold change vs veh, SNHG1 /// SNORD22 /// SNORD25 /// SNORD26 /// SNORD27 /// SNORD28 /// SNORD29 /// SNORD31 / Fold change (Aza/veh), C12orf56 (ProbeSet 11735607_a_at) / Fold change (ACY-1035/veh), C12orf56 (ProbeSet 11735607_a_at) / Fold change (Aza/veh), FGFR1OP (ProbeSet 11751329_s_at) / Fold change (ACY-1035/veh), FGFR1OP (ProbeSet 11751329_s_at) / Fold change (Aza/veh), VPS36 (ProbeSet 11739960_a_at) / Fold change (ACY-1035/veh), VPS36 (ProbeSet 11739960_a_at) / RFU SYPL1 (11715823_x_at) / Fold change /veh SYPL1 (11715823_x_at) / RFU IGFBP7 (11715501_s_at) / Fold change /veh IGFBP7 (11715501_s_at) / RFU REEP3 (11722064_at) / Fold change /veh REEP3 (11722064_at) / RFU IGLL1 (11728026_x_at) / Fold change /veh IGLL1 (11728026_x_at): dose or concentration left out as unconfirmed
Settings: ProbeSet 11745260_x_at; LIST B

Nc1ncn([C@@H]2O[C@H](CO)[C@@H](O)[C@H]2O)c(=O)n1 [azacitidine]
Fold change vs veh, SLC12A2: 0.91
